Molecules are shown by their SMILES. Read-outs that look alike come from different tables or passages of the source. *1 amine or outer side, *2 acyl side, *3 side chain or, on linkers, in order; H or OH if unused. Where a SMILES comes first, the peptide text is derived from it. Bridges are numbered along the chain shown (N, C = ends). Biphenyl(4,4'-CH2)2 = c1cc(-c2ccc(C[*:2])cc2)ccc1C[*:1]; Maleimide(3,4-diyl) = O=C1NC(=O)C([*:2])=C1[*:1]

Consider 12 compounds from publication PMC11604048, “Constrained TACC3 peptidomimetics for a non-canonical protein–protein interface elucidate allosteric communication in Aurora-A kinase” (Chemical Science, 2024).

In this test the target is T1, Aurora-A122-403-C290A/C393A (Homo sapiens, UniProt O14965, C290A/C393A).
T1 construct: Human Aurora-A kinase domain 122-403 wild-type or C290A/ C393A mutant; His tag (pET30TEV vector) (N, cleaved yes); made in house; host or cells: E. coli RIL, co-expressed with lambda phosphatase (Aurora-A); tracer by solid phase synthesis
T1 sequence (O14965 122-403 C290A/C393A): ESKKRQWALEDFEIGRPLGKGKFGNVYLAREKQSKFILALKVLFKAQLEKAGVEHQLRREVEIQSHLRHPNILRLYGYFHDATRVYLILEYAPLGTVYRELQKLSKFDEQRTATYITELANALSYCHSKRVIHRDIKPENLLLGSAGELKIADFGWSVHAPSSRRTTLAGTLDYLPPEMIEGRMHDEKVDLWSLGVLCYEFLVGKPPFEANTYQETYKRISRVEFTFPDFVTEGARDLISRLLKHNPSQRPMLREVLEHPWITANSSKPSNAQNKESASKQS
The test can be described thus: Competition FA assay against FAM-Ahx-TACC3 522-536 tracer. Particulars: as E1, mean ± SD, n = 3. The test is classed as binding. The protocol: Once completed, the mixtures were transferred into SPPS fritted reaction vessels and washed with H2O (5X, 10 mL, 2 min), DMF (5X, 5mL, 2 min) and DCM (5X, 5 mL, 2 min). The clean resins were dried under vacuum and the cyclic peptides cleaved from the resin following the general procedures described in previous sections. After Et2O precipitation, the crude materials were freeze-dried and redissolved in H2O/MeCN/TFA 90/10/0.1% v/v for preparative HPLC purification.
All disulfide peptide variants (ox) were produced in situ from their free-thiol solid precursors. For this, 2 mg of the pure peptide materials were dissolved in aqueous DMSO 33% v/v to a 10 mM concentration and were left open to air oxidation at room temperature overnight. […]
the peptides were employed for FA competition assays and IC50 evaluation without further additional […]
Fluorescence anisotropy (FA) assays – General information.
All assays were performed using 384-well plates(Greiner Bio-one, UK). […]
produced as described previously.11 All samples were prepared in 25 mM Tris,150 mM NaCl, 5 mM MgCl2, pH= 7.5, unless otherwise stated, and tested in triplicate using an EnVisionTM 2103 MultiLabel plate reader (PerkinElmer; Waltham, MA, USA).The parameters were set as follows: Excitation wavelength = 480 nm (30 nm bandwidth) and emission wavelength = 535 nm (30 nm bandwidth). Measured data were processed and analysed as previously described.12 Specifically, the perpendicular intensity (P) and parallel intensity (S) were subtracted by the control values and used for calculations of intensity and anisotropy using the following Equations 1, 2, 3, 4, and 5:
I= (2PG) + S Eq. (SI − 5)
r = (S − PG) Eq. (SI − 6)
L = r − r௠௜௡ Eq. (SI − 7)
y = (k + x + [FL]) − ඥ(k + x + [FL]2 − 4 ∗ x ∗ [FL]) Eq. (SI − 8)
y = r + r௠௜௡ − r௠௔௫ Eq. (SI − 9)
Where I = total intensity; P = perpendicular intensity; S = parallel intensity; G = instrument factor; r = anisotropy; Lb = ligand bound fraction; λ = change in intensity between bound and unbound states which […]
FA direct binding assays. […]
starting from 700 μM, diluted over 24 points in a 1/2 regime using the FAM-Ahx-labeled peptides at a final fixed concentration of 50 nM per well.
FA competition assays were performed using the same plates and buffer as described above, with the initial […]
14 points in a 1/2 regime. […]
after 4 h of incubation to enable appropriate sample equilibration. To prevent sample oxidation, when sulfhydryl peptides were analyzed DTT was added to the buffer (5 mM). In competition mode, the average anisotropy and the average standard deviation of the values derived from equation SI-6 were calculated and fit to a sigmoidal logistic model (equation SI-9) using Origin 2021. When using peptides for which full […]
For consistency, all the data […]
indicating the corresponding SD. […]

[1] abbreviates: free-sulfhydryl (reduced) species, DTT 5 mM in buffer, WT control (+DTT), SD, read-out: IC50 (red).
Where [2] appears, read: oxidised (disulfide) species made in situ from 10 mM stock in aqueous DMSO 33% v/v, air, overnight, WT control (+DMSO) given the same DMSO incubation, read-out: IC50 (ox).
[3] abbreviates: free-sulfhydryl (reduced) species, DTT 5 mM in buffer, WT control (+DTT), read-out: IC50 (red).
Where [4] appears, read: Table S3 (mal): maleimide-constrained species, WT value is an individual replica control assay, read-out: IC50 (mal).

`CC(=O)N[C@@H](CCC(=O)O)C(=O)N[C@@H](CCC(=O)O)C(=O)N[C@@H](CO)C(=O)N[C@@H](Cc1ccccc1)C(=O)N[C@@H](CCCNC(=N)N)C(=O)N[C@@H](CC(=O)O)C(=O)N1CCC[C@H]1C(=O)N[C@@H](C)C(=O)N[C@@H](CCC(=O)O)C(=O)N[C@H](C(=O)N[C@@H](CC(C)C)C(=O)N[C@@H](CS)C(=O)N[C@H](C(=O)NCC(=O)N[C@@H](CS)C(N)=O)[C@@H](C)O)C(C)C` [TACC3 522-536 G533C/A536C (red)] (Ac-EESFRDPAEVLCTGC-NH2): the 50% inhibitory concentration (IC50) under setting [1] was determined as 80 ± 3 µM.

Turning to `CC(=O)N[C@@H](CCC(=O)O)C(=O)N[C@@H](CCC(=O)O)C(=O)N[C@@H](CO)C(=O)N[C@@H](Cc1ccccc1)C(=O)N[C@@H](CCCNC(=N)N)C(=O)N[C@@H](CC(=O)O)C(=O)N1CCC[C@H]1C(=O)N[C@@H](C)C(=O)N[C@@H](CCC(=O)O)C(=O)N[C@H](C(=O)N[C@H]1CSC2=C(SC[C@@H](C(=O)N[C@@H](C)C(N)=O)NC(=O)[C@H]([C@@H](C)O)NC(=O)CNC1=O)C(=O)NC2=O)C(C)C` [TACC3 522-536 L532C/G535C (mal)] (Ac-EESFRDPAEVCGTCA-NH2; linker 11-14 via Maleimide(3,4-diyl)), the IC50 (Table S3 (mal): maleimide-constrained species, WT value is an individual replica control assay, SD, read-out: IC50 (mal)) is 480 ± 60 µM.

Consider `CC(=O)N[C@@H](CCC(=O)O)C(=O)N[C@@H](CCC(=O)O)C(=O)N[C@@H](CO)C(=O)N[C@@H](Cc1ccccc1)C(=O)N[C@@H](CCCNC(=N)N)C(=O)N[C@@H](CC(=O)O)C(=O)N1CCC[C@H]1C(=O)N[C@@H](C)C(=O)N[C@@H](CCC(=O)O)C(=O)N[C@H](C(=O)N[C@H]1CSSC[C@@H](C(=O)N[C@@H](C)C(N)=O)NC(=O)[C@H]([C@@H](C)O)NC(=O)CNC1=O)C(C)C` [TACC3 522-536 L532C/G535C (ox)] (Ac-EESFRDPAEVCGTCA-NH2; disulfide 11-14), for which the IC50 under setting [2] is ≥ 500 µM.

As to `CC(=O)N[C@@H](CCC(=O)O)C(=O)N[C@@H](CCC(=O)O)C(=O)N[C@@H](CO)C(=O)N[C@@H](Cc1ccccc1)C(=O)N[C@@H](CCCNC(=N)N)C(=O)N[C@@H](CC(=O)O)C(=O)N1CCC[C@H]1C(=O)N[C@@H](C)C(=O)N[C@@H](CCC(=O)O)C(=O)N[C@H](C(=O)N[C@@H](CS)C(=O)NCC(=O)N[C@H](C(=O)N[C@@H](CS)C(=O)N[C@@H](C)C(N)=O)[C@@H](C)O)C(C)C` [TACC3 522-536 L532C/G535C (red)] (Ac-EESFRDPAEVCGTCA-NH2), the IC50 under setting [3] is ≥ 500 µM.

As for `CC(=O)N[C@@H](CCC(=O)O)C(=O)N[C@@H](CCC(=O)O)C(=O)N[C@@H](CO)C(=O)N[C@@H](Cc1ccccc1)C(=O)N[C@@H](CCCNC(=N)N)C(=O)N[C@@H](CC(=O)O)C(=O)N[C@H]1CSC2=C(SC[C@@H](C(=O)N[C@@H](CC(C)C)C(=O)NCC(=O)N[C@H](C(=O)NCC(=O)N[C@@H](C)C(N)=O)[C@@H](C)O)NC(=O)[C@H](CCC(=O)O)NC(=O)[C@H](C)NC1=O)C(=O)NC2=O` [TACC3 522-536 P528C/V531C (mal)] (Ac-EESFRDCAECLGTGA-NH2; linker 7-10 via Maleimide(3,4-diyl) (inferred)), under setting [4], the IC50 is ≥ 500 µM.

Take `CC(=O)N[C@@H](CCC(=O)O)C(=O)N[C@@H](CCC(=O)O)C(=O)N[C@@H](CO)C(=O)N[C@@H](Cc1ccccc1)C(=O)N[C@@H](CCCNC(=N)N)C(=O)N[C@@H](CC(=O)O)C(=O)N[C@H]1CSSC[C@@H](C(=O)N[C@@H](CC(C)C)C(=O)NCC(=O)N[C@H](C(=O)NCC(=O)N[C@@H](C)C(N)=O)[C@@H](C)O)NC(=O)[C@H](CCC(=O)O)NC(=O)[C@H](C)NC1=O` [TACC3 522-536 P528C/V531C (ox)] (Ac-EESFRDCAECLGTGA-NH2; disulfide 7-10): the IC50 under setting [2] was ≥ 500 µM.

As to `CC(=O)N[C@@H](CCC(=O)O)C(=O)N[C@@H](CCC(=O)O)C(=O)N[C@@H](CO)C(=O)N[C@@H](Cc1ccccc1)C(=O)N[C@@H](CCCNC(=N)N)C(=O)N[C@@H](CC(=O)O)C(=O)N[C@@H](CS)C(=O)N[C@@H](C)C(=O)N[C@@H](CCC(=O)O)C(=O)N[C@@H](CS)C(=O)N[C@@H](CC(C)C)C(=O)NCC(=O)N[C@H](C(=O)NCC(=O)N[C@@H](C)C(N)=O)[C@@H](C)O` [TACC3 522-536 P528C/V531C (red)] (Ac-EESFRDCAECLGTGA-NH2), under setting [3], the IC50 is ≥ 500 µM.

Take `CC(=O)N[C@@H](CCC(=O)O)C(=O)N[C@@H](CCC(=O)O)C(=O)N[C@@H](CO)C(=O)N[C@@H](Cc1ccccc1)C(=O)N[C@H]1CSC2=C(SC[C@@H](C(=O)N[C@@H](CCC(=O)O)C(=O)N[C@H](C(=O)N[C@@H](CC(C)C)C(=O)NCC(=O)N[C@H](C(=O)NCC(=O)N[C@@H](C)C(N)=O)[C@@H](C)O)C(C)C)NC(=O)[C@@H]3CCCN3C(=O)[C@H](CC(=O)O)NC1=O)C(=O)NC2=O` [TACC3 522-536 R526C/A529C (mal)] (Ac-EESFCDPCEVLGTGA-NH2; linker 5-8 via Maleimide(3,4-diyl) (inferred)): under setting [4], the IC50 was ≥ 500 µM.

Turning to `CC(=O)N[C@@H](CCC(=O)O)C(=O)N[C@@H](CCC(=O)O)C(=O)N[C@@H](CO)C(=O)N[C@@H](Cc1ccccc1)C(=O)N[C@H]1CSSC[C@@H](C(=O)N[C@@H](CCC(=O)O)C(=O)N[C@H](C(=O)N[C@@H](CC(C)C)C(=O)NCC(=O)N[C@H](C(=O)NCC(=O)N[C@@H](C)C(N)=O)[C@@H](C)O)C(C)C)NC(=O)[C@@H]2CCCN2C(=O)[C@H](CC(=O)O)NC1=O` [TACC3 522-536 R526C/A529C (ox)] (Ac-EESFCDPCEVLGTGA-NH2; disulfide 5-8), under setting [2], the IC50 was ≥ 500 µM.

Consider `CC(=O)N[C@@H](CCC(=O)O)C(=O)N[C@@H](CCC(=O)O)C(=O)N[C@@H](CO)C(=O)N[C@@H](Cc1ccccc1)C(=O)N[C@@H](CS)C(=O)N[C@@H](CC(=O)O)C(=O)N1CCC[C@H]1C(=O)N[C@@H](CS)C(=O)N[C@@H](CCC(=O)O)C(=O)N[C@H](C(=O)N[C@@H](CC(C)C)C(=O)NCC(=O)N[C@H](C(=O)NCC(=O)N[C@@H](C)C(N)=O)[C@@H](C)O)C(C)C` [TACC3 522-536 R526C/A529C (red)] (Ac-EESFCDPCEVLGTGA-NH2), for which the IC50 under setting [1] was found to be 352 ± 45 µM.

With `CC(=O)N[C@@H](CCC(=O)O)C(=O)N[C@@H](CCC(=O)O)C(=O)N[C@@H](CO)C(=O)N[C@@H](Cc1ccccc1)C(=O)N[C@H]1CSCc2ccc(cc2)-c2ccc(cc2)CSC[C@@H](C(=O)N[C@@H](CC(C)C)C(=O)NCC(=O)N[C@H](C(=O)NCC(=O)N[C@@H](C)C(N)=O)[C@@H](C)O)NC(=O)[C@H](CCC(=O)O)NC(=O)[C@H](C)NC(=O)[C@@H]2CCCN2C(=O)[C@H](CC(=O)O)NC1=O` [TACC3 522-536 R526C/V531C (Bph)] (Ac-EESFCDPAECLGTGA-NH2; linker 5-10 via Biphenyl(4,4'-CH2)2), the IC50 (Table S3 column (Bph): biphenyl-constrained species, WT value is an individual replica control assay, SD, read-out: IC50 (Bph)) is 249 ± 43 µM.

Consider `CC(=O)N[C@@H](CCC(=O)O)C(=O)N[C@@H](CCC(=O)O)C(=O)N[C@@H](CO)C(=O)N[C@@H](Cc1ccccc1)C(=O)N[C@H]1CSSC[C@@H](C(=O)N[C@@H](CC(C)C)C(=O)NCC(=O)N[C@H](C(=O)NCC(=O)N[C@@H](C)C(N)=O)[C@@H](C)O)NC(=O)[C@H](CCC(=O)O)NC(=O)[C@H](C)NC(=O)[C@@H]2CCCN2C(=O)[C@H](CC(=O)O)NC1=O` [TACC3 522-536 R526C/V531C (ox)] (Ac-EESFCDPAECLGTGA-NH2; disulfide 5-10), for which, under setting [2], the IC50 was ≥ 500 µM.

The IC50 is the point on the concentration scale where inhibition reaches its midpoint.
